Laboratory results published in article PMC5619856, “One enzyme, many reactions: structural basis for the various reactions catalyzed by naphthalene 1,2-dioxygenase” (IUCrJ, 2017).

What follows are compounds tested against T1, naphthalene 1,2-dioxygenase (NDO) (Pseudomonas putida, UniProt P0A110) (assay: X-ray crystal structure (soaked crystal)). Conditions: active site, multiple orientations; crystals pH 5.0-5.8; soaked at least two weeks.
T1 construct: gene ndoB; wild-type terminal oxygenase component, plasmid pDTG121 in E. coli DE3 Star, no tag mentioned; alpha3beta3 hexamer with Rieske [2Fe-2S] and mononuclear iron; with Naphthalene 1,2-dioxygenase system, small oxygenase component
T1 sequence (P0A110 1-449): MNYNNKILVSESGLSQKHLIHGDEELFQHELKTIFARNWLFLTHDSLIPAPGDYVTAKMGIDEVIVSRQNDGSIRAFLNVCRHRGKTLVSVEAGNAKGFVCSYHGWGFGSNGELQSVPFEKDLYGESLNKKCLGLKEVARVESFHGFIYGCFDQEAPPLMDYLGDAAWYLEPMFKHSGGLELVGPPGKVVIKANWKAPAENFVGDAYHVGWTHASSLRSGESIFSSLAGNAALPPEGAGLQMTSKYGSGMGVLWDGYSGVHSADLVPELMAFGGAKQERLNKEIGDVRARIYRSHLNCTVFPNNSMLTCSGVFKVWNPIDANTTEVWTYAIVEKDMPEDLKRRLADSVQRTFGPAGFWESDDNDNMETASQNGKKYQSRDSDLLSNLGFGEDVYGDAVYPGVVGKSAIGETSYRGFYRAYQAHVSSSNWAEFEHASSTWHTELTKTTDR
T1 sequence (P0A112 1-194 partner): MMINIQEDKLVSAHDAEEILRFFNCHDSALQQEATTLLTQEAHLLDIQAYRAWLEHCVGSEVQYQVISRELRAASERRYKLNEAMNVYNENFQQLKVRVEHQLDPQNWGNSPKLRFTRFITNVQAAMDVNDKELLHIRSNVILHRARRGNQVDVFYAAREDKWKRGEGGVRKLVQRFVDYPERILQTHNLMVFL
Format: binding

| SMILES | X-ray crystal structure (soaked crystal) |
| --- | --- |
| CCSc1ccccc1 [ethylphenylsulfide] | structures of phenetole, thioanisole and ethylphenylsulfide in complex with NDO were solved |
| CCOc1ccccc1 [phenetole] | structures of phenetole, thioanisole and ethylphenylsulfide in complex with NDO were solved |
| CSc1ccccc1 [thioanisole] | structures of phenetole, thioanisole and ethylphenylsulfide in complex with NDO were solved |
